# Columns and labels:
# c-Kit = c-Kit (Homo sapiens, UniProt P10721); experiment: cKit kinase mobility shift assay; format: biochemical
# Procedure: The effect of the compounds on the activity of cKit, RET and AXL kinases were assessed by Mobility shift assay. • 1. 1× kinase base buffer and stop buffer for testing kinases were prepared • 1-1) 1× Kinase base buffer (50 mM HEPES, pH 7.5, 0.01% Triton X-100) • 1-2) Stop buffer (100 mM HEPES, pH 7.5, 0.015% Brij-35, 0.2% Coating Reagent #3, 50 mM EDTA) • 2. Compound and assay plate preparation: the compound was diluted to 50× of the final desired highest inhibitor concentration in reaction by 100% DMSO. 100 μl of this compound dilution was transferred to a well in a 96-well plate. For example, if the highest desired concentration was 5 μM, then 250 μM of compound DMSO solution was prepared in this step. For all compounds, the compound was serially diluted by transferring 10 μl to 70 μl of 100 DMSO in the next well and so forth for a total of 5 concentrations. 100 μl of 100% DMSO was added to two empty wells for no compound control and no enzyme control in the same 96-well plate. The plate was labeled as source plate. The intermediate plate was prepared by transferring 10 μl of compound from source plate to a new 96-well plate as the intermediate plate, adding 90 μl of 1× kinase buffer to each well of the intermediate plate, mixing the compounds in intermediate plate for 10 min on shaker. 5 μl of each well from the 96-well intermediate plate were transferred to a 384-well plate in duplicates. For example, A1 of the 96-well plate was transferred to A1 and A2 of the 384-well plate. A2 of the 96-well plate was transferred to A3 and A4 of the 384-well plate, and so on. • 4. Kinase reaction: The assay plate already contained 5 μl of compound in 10% DMSO. A 2.5× enzyme solution was prepared by adding kinases (cKit, RET, or AXL) and DTT in 1× kinase base buffer. 2.5× enzyme solution was transferred to the assay plate (by adding 10 μl of 2.5× enzyme solution to each well of the 384-well assay plate). The plate was incubated at room temperature for 10 min. 2.5× peptide solution was prepared by adding FAM-labeled peptide, ATP, MgCl2 in the 1× kinase base buffer. 2.5× peptide solution was added to the assay plate by adding 10 μl of 2.5× peptide solution to each well of the 384-well assay plate. The plate was incubated at 28° C. for the specified period of time. 25 μl of stop buffer was added to stop reaction. Data was collected on Caliper.
# PAK1 = PAK1 (Homo sapiens, UniProt Q13153); experiment: In vitro kinase assay, PAK1 (Caliper EZ Reader conversion); format: biochemical; set-up: purchased Carna Biosciences
# PAK1, sequence (Q13153 whole entry): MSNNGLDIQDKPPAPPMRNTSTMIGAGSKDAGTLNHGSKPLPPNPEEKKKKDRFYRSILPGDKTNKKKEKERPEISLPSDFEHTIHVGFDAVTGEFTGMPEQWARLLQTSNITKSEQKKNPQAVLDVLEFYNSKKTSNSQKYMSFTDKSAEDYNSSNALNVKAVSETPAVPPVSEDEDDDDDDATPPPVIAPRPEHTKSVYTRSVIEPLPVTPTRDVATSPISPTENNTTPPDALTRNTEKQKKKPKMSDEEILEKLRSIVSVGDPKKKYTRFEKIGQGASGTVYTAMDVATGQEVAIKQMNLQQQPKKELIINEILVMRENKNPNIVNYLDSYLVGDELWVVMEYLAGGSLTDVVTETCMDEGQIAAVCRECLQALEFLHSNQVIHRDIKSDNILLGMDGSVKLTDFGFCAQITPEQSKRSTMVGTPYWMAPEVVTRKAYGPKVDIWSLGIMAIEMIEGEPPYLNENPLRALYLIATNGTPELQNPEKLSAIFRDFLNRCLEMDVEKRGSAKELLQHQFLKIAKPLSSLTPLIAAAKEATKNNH
# In short: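 Human PAK1 was preincubated with compound (6 concentrations, 4-fold dilutions) for 10 min at room temperature, then reacted with substrate mix for 30 and 60 min. Substrate conversion was read by Caliper mobility shift. IC50 was fitted by variable-slope log(inhibitor)–response, normalised to FRAX597 and buffer controls.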
# HPK1 (MAP4K1) = HPK1 (MAP4K1) (Homo sapiens, UniProt Q92918); experiment: HPK1 (MAP4K1) kinase Lantha screen assay; format: biochemical
# HPK1 (MAP4K1), sequence (Q92918 whole entry, species assumed): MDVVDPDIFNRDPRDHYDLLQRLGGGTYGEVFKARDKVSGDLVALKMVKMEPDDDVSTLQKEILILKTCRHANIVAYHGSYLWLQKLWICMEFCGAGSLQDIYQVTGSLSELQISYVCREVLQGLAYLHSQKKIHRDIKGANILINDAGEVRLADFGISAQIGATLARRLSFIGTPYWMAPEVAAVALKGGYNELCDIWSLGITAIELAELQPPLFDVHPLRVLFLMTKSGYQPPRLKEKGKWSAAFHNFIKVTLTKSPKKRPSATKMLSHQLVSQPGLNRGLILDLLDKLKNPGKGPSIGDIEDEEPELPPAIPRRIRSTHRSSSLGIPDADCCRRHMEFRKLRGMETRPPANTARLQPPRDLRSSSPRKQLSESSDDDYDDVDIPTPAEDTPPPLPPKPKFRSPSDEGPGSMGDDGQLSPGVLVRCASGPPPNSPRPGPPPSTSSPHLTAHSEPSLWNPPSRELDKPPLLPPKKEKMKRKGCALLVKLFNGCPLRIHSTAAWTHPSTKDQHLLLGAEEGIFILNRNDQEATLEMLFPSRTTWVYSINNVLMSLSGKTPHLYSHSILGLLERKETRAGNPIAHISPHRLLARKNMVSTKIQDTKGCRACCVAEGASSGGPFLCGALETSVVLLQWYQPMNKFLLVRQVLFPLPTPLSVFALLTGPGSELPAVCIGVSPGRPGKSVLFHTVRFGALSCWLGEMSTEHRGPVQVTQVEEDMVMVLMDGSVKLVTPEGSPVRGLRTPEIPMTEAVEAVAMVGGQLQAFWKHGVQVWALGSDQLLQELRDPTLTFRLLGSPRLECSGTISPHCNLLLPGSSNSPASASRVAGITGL
# In short: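 Recombinant MAP4K1 preincubated 10 min with compound (6-point dilution, duplicates) in 50 mM HEPES pH 7.5, 10 mM MgCl2, then reacted with Fluorescein-PKC substrate and ATP for 90 min at room temperature. Antibody detection solution stopped reaction; after 60 min, TR-FRET read at ex 340 nm, em 520/495 nm.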
# [1] = Mouse pharmacokinetics study (intravenous and oral); format: in vivo; details: mouse, plasma; CD-1 mice, PO 25 mg/kg
# Source text: The test articles were formulated in […] Hydroxypropyl-beta-cyclodextrin, either as a clear solution or fine suspension.
# c-Kit, sequence (P10721 26-976): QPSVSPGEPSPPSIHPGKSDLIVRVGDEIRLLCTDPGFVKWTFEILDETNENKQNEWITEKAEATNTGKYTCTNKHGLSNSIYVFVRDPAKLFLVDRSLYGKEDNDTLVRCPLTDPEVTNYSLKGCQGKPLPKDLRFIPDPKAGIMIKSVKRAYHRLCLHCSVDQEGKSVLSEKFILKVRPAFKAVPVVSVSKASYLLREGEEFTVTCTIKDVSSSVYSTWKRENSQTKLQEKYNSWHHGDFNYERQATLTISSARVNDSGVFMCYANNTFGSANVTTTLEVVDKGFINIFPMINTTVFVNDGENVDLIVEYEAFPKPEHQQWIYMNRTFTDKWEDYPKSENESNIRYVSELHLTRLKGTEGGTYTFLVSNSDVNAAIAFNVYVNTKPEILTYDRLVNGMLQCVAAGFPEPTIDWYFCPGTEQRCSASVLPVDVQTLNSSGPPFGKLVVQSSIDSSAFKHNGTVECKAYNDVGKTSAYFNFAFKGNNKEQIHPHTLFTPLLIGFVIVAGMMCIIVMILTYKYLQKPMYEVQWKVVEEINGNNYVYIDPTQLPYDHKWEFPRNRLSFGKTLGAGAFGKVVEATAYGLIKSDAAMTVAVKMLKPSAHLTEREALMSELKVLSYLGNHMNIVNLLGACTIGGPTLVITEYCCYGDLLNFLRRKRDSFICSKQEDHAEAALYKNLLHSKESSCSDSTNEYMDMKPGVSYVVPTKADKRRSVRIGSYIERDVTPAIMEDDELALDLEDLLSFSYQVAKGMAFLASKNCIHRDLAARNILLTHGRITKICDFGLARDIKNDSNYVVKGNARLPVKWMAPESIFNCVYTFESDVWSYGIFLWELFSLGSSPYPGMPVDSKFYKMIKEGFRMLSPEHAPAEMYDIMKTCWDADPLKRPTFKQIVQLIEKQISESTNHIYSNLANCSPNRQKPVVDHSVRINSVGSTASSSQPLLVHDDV
Structure (SMILES),IC50 (c-Kit) [nM],also measured
"CN1CCN(c2ccc(Nc3ncc4c(n3)N3CCN=C3C(c3ccccc3Cl)=C4)cn2)CC1 [Compound 92, 6-(2-chlorophenyl)-N-(6-(4-methylpiperazin-1-yl)pyridin-3-yl)-8,9-dihydroimidazo[1′,2′:1,6]pyrido[2,3-d]pyrimidin-2-amine]",100 to 10000,IC50 (PAK1): 100 to 10000 nM
"Cn1cc(Nc2ncc3c(n2)N2CCN=C2C(c2ccc(Cl)cc2Cl)=C3)cn1 [Compound 102, 6-(2,4-dichlorophenyl)-N-(1-methyl-1H-pyrazol-4-yl)-8,9-dihydroimidazo[1′,2′:1,6]pyrido[2,3-d]pyrimidin-2-amine]",< 100,
"CN1CCC(n2cc(Nc3ncc4c(n3)N3CCN=C3C(c3ccc(Cl)cc3Cl)=C4)cn2)CC1 [Compound 103, 6-(2,4-dichlorophenyl)-N-(1-(1-methylpiperidin-4-yl)-1H-pyrazol-4-yl)-8,9-dihydroimidazo[1′,2′:1,6]pyrido[2,3-d]pyrimidin-2-amine]",< 100,
"CNc1ncc2c(n1)N1CCN=C1C(c1c(C)ccc(NC(=O)c3cc(C(F)(F)F)ccn3)c1F)=C2 [Compound 140, N-(2-fluoro-4-methyl-3-(2-(methylamino)-8,9-dihydroimidazo[1′,2′:1,6]pyrido[2,3-d]pyrimidin-6-yl)phenyl)-4-(trifluoromethyl)picolinamide]",100 to 10000,
"O=C(Nc1cc(C2=Cc3cnc(NC4COC4)nc3N3CCN=C23)c(Br)cc1F)c1cc(C(F)(F)F)ccn1 [Compound 188, N-(4-bromo-2-fluoro-5-(2-(oxetan-3-ylamino)-8,9-dihydroimidazo[1′,2′:1,6]pyrido[2,3-d]pyrimidin-6-yl)phenyl)-4-(trifluoromethyl)picolinamide]",< 100,
"Cc1ccc(NC(=O)c2cc(C(F)(F)F)ccn2)cc1C1=Cc2cnc(Nc3cnn(C)c3)nc2N2CCN=C12 [Compound 195, N-(4-methyl-3-(2-((1-methyl-1H-pyrazol-4-yl)amino)-8,9-dihydroimidazo[1′,2′:1,6]pyrido[2,3-d]pyrimidin-6-yl)phenyl)-4-(trifluoromethyl)picolinamide]",< 100,IC50 (HPK1 (MAP4K1)): < 100 nM
"Cc1ccc(NC(=O)c2cc(C(C)(C)F)ccn2)cc1C1=Cc2cnc(Nc3cnn(C)c3)nc2N2CCN=C12 [Compound 196, 4-(2-fluoropropan-2-yl)-N-(4-methyl-3-(2-((1-methyl-1H-pyrazol-4-yl)amino)-8,9-dihydroimidazo[1′,2′:1,6]pyrido[2,3-d]pyrimidin-6-yl)phenyl)picolinamide]",< 100,AUC [1]: 11300 ± 3010 ng·h/mL; Cmax [1]: 1060 ± 108 ng/mL; Tmax [1]: 1.33 ± 0.58 h
"Cc1ccc(NC(=O)c2cc(C(F)(F)F)ccn2)cc1C1=Cc2cnc(Nc3cccc(CO)c3)nc2N2CCN=C12 [Compound 229, N-(3-(2-((3-(hydroxymethyl)phenyl)amino)-8,9-dihydroimidazo[1′,2′:1,6]pyrido[2,3-d]pyrimidin-6-yl)-4-methylphenyl)-4-(trifluoromethyl)picolinamide]",< 100,IC50 (HPK1 (MAP4K1)): < 100 nM
"CNc1ncc2c(n1)N1CCN=C1C(Oc1ccc(NC(=O)NC3CC3)cc1)=C2 [Compound 312, 1-cyclopropyl-3-(4-((2-(methylamino)-8,9-dihydroimidazo[1′,2′:1,6]pyrido[2,3-d]pyrimidin-6-yl)oxy)phenyl)urea]",> 10000,
"CNc1ncc2c(n1)N1CCN=C1C(Oc1ccc(NC(=O)Nc3ccc(Cl)c(C(F)(F)F)c3)cc1)=C2 [Compound 313, 1-(4-chloro-3-(trifluoromethyl)phenyl)-3-(4-((2-(methylamino)-8,9-dihydroimidazo[1′,2′:1,6]pyrido[2,3-d]pyrimidin-6-yl)oxy)phenyl)urea]",100 to 10000,
"CNc1ncc2c(n1)N1CCN=C1C(c1cc(NC(=O)NC3CC3)c(F)cc1C)=C2 [Compound 315, 1-cyclopropyl-3-(2-fluoro-4-methyl-5-(2-(methylamino)-8,9-dihydroimidazo[1′,2′:1,6]pyrido[2,3-d]pyrimidin-6-yl)phenyl)urea]",> 10000,
"CNc1ncc2c(n1)N1CCN=C1C(c1cc(NC(=O)NCCC(F)(F)F)c(F)cc1C)=C2 [Compound 316, 1-(2-fluoro-4-methyl-5-(2-(methylamino)-8,9-dihydroimidazo[1′,2′:1,6]pyrido[2,3-d]pyrimidin-6-yl)phenyl)-3-(3,3,3-trifluoropropyl)urea]",100 to 10000,IC50 (HPK1 (MAP4K1)): > 10000 nM
"CNc1ncc2c(n1)N1CCN=C1C(c1cc(NC(=O)NCCC(C)(C)C)c(F)cc1C)=C2 [Compound 317, 1-(3,3-dimethylbutyl)-3-(2-fluoro-4-methyl-5-(2-(methylamino)-8,9-dihydroimidazo[1′,2′:1,6]pyrido[2,3-d]pyrimidin-6-yl)phenyl)urea]",< 100,IC50 (HPK1 (MAP4K1)): 100 to 10000 nM
"CNc1ncc2c(n1)N1CCN=C1C(c1cc(NC(=O)Nc3ccccc3)c(F)cc1Br)=C2 [Compound 326, 1-(4-bromo-2-fluoro-5-(2-(methylamino)-8,9-dihydroimidazo[1′,2′:1,6]pyrido[2,3-d]pyrimidin-6-yl)phenyl)-3-phenylurea]",< 100,
"CNc1ncc2c(n1)N1CCN=C1C(c1cc(NC(=O)Nc3ccccc3Cl)c(F)cc1Br)=C2 [Compound 327, 1-(4-bromo-2-fluoro-5-(2-(methylamino)-8,9-dihydroimidazo[1′,2′:1,6]pyrido[2,3-d]pyrimidin-6-yl)phenyl)-3-(2-chlorophenyl)urea]",< 100,
"O=C(Nc1ccccc1)Nc1cc(C2=Cc3cnc(NC4COC4)nc3N3CCN=C23)c(Br)cc1F [Compound 328, 1-(4-bromo-2-fluoro-5-(2-(oxetan-3-ylamino)-8,9-dihydroimidazo[1′,2′:1,6]pyrido[2,3-d]pyrimidin-6-yl)phenyl)-3-phenylurea]",< 100,
"O=C(Nc1cc(C2=Cc3cnc(NC4COC4)nc3N3CCN=C23)c(Br)cc1F)Nc1ccccc1Cl [Compound 329, 1-(4-bromo-2-fluoro-5-(2-(oxetan-3-ylamino)-8,9-dihydroimidazo[1′,2′:1,6]pyrido[2,3-d]pyrimidin-6-yl)phenyl)-3-(2-chlorophenyl)urea]",< 100,
"CNc1ncc2c(n1)N1CCN=C1C(c1cc(NC(=O)Nc3ccccc3Cl)c(F)cc1C)=C2 [Compound 331, 1-(2-chlorophenyl)-3-(2-fluoro-4-methyl-5-(2-(methylamino)-8,9-dihydroimidazo[1′,2′:1,6]pyrido[2,3-d]pyrimidin-6-yl)phenyl)urea]",< 100,IC50 (HPK1 (MAP4K1)): 100 to 10000 nM
"CCNc1ncc2c(n1)N1CCN=C1C(c1cc(NC(=O)Nc3ccccc3Cl)c(F)cc1C)=C2 [Compound 332, 1-(2-chlorophenyl)-3-(5-(2-(ethylamino)-8,9-dihydroimidazo[1′,2′:1,6]pyrido[2,3-d]pyrimidin-6-yl)-2-fluoro-4-methylphenyl)urea]",< 100,
"CNc1ncc2c(n1)N1CCN=C1C(c1cc(NC(=O)Nc3ccccc3F)c(Cl)cc1C)=C2 [Compound 334, 1-(2-chloro-4-methyl-5-(2-(methylamino)-8,9-dihydroimidazo[1′,2′:1,6]pyrido[2,3-d]pyrimidin-6-yl)phenyl)-3-(2-fluorophenyl)urea]",< 100,
"CNc1ncc2c(n1)N1CCN=C1C(c1cc(NC(=O)Nc3ccc(Cl)cc3F)c(F)cc1C)=C2 [Compound 337, 1-(4-chloro-2-fluorophenyl)-3-(2-fluoro-4-methyl-5-(2-(methylamino)-8,9-dihydroimidazo[1′,2′:1,6]pyrido[2,3-d]pyrimidin-6-yl)phenyl)urea]",< 100,
"CNc1ncc2c(n1)N1CCN=C1C(c1cc(NC(=O)Nc3ccccc3F)c(F)cc1C)=C2 [Compound 338, 1-(2-fluoro-4-methyl-5-(2-(methylamino)-8,9-dihydroimidazo[1′,2′:1,6]pyrido[2,3-d]pyrimidin-6-yl)phenyl)-3-(2-fluorophenyl)urea]",< 100,
